Assays:
[1] = test system: pigweed; experiment: Test C preemergence; type: in vivo, Amaranthus retroflexus; conditions: preemergence; for Plant response rating, Pigweed: 125 g ai/ha, scale 0 to 100, 0 = no effect, 100 = complete control
How it was run: (§1)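 Postemergence values come from plants sprayed at the 1- to 4-leaf stage (2–18 cm) in peat moss–vermiculite medium; preemergence values from seeds treated in a loam–sand blend. Both evaluated visually against controls after 13–15 greenhouse days, scale 0–100.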

[2] = test system: velvetleaf; experiment: Test C preemergence; type: in vivo, Abutilon theophrasti; conditions: preemergence; for Plant response rating, Velvetleaf: 125 g ai/ha, scale 0 to 100, 0 = no effect, 100 = complete control
How it was run: as §1

[3] = test system: foxtail, giant; experiment: Test C preemergence; type: in vivo, Setaria faberii; conditions: preemergence; for Plant response rating, Foxtail, Giant: 125 g ai/ha, scale 0 to 100, 0 = no effect, 100 = complete control
How it was run: as §1

[4] = test system: corn; experiment: Test A postemergence; type: in vivo, Zea mays
How it was run: (§2)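 Visual injury ratings, 0 = no effect to 100 = complete control, taken about 10 days after treatment against untreated controls. Test chemicals, in a non-phytotoxic surfactant-containing solvent, were sprayed onto soil preemergence or onto one- to two-leaf plants (2–10 cm) postemergence, in loam–sand soil under greenhouse conditions.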

[5] = test system: wheat; experiment: Test A preemergence; type: in vivo, Triticum aestivum; conditions: preemergence; for Wheat plant response rating (0 to 100 scale): 125 g ai/ha, visual injury approx. 10 days after treatment; for Wheat plant response rating: 500 g ai/ha, visual injury after approx. 10 days, 0 to 100 scale (0 no effect, 100 complete control)
How it was run: as §2

[6] = test system: corn; experiment: Test C preemergence; type: in vivo, Zea mays; conditions: preemergence; for Plant response rating, Corn: 125 g ai/ha, scale 0 to 100, 0 = no effect, 100 = complete control
How it was run: as §1

[7] = test system: ragweed; experiment: Test C preemergence; type: in vivo, Ambrosia elation; conditions: preemergence; for Plant response rating, Ragweed: 125 g ai/ha, scale 0 to 100, 0 = no effect, 100 = complete control
How it was run: as §1

[8] = test system: ryegrass, Italian; experiment: Test C preemergence; type: in vivo, Lolium multiflorum; conditions: preemergence; for Plant response rating, Ryegrass, Italian: 125 g ai/ha, scale 0 to 100, 0 = no effect, 100 = complete control
How it was run: as §1

[9] = test system: barnyardgrass; experiment: Test B flood; type: in vivo, Echinochloa crus-galli; conditions: 250 g ai/ha, visual rating on 0 to 100 scale (0 no effect, 100 complete control), 13 to 15 days
How it was run: (§3)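 Paddy-water application: seedlings at 2-leaf stage, flood depth 3 cm maintained for the test duration. Evaluation after 13–15 days in the greenhouse by eye relative to controls; 0–100 scale.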

[10] = test system: sedge, umbrella; experiment: Test B flood; type: in vivo, Cyperus difformis; conditions: 250 g ai/ha, visual rating on 0 to 100 scale (0 no effect, 100 complete control), 13 to 15 days
How it was run: as §3

[11] = test system: barnyardgrass; experiment: Test A preemergence; type: in vivo, Echinochloa crus-galli; conditions: preemergence; for Barnyardgrass plant response rating (0 to 100 scale, 0 is no effect, 100 is complete control): 125 g ai/ha, visual injury approx. 10 days after treatment; for Barnyardgrass plant response rating: 500 g ai/ha, visual injury after approx. 10 days, 0 to 100 scale (0 no effect, 100 complete control)
How it was run: as §2

[12] = test system: wheat; experiment: Test A postemergence; type: in vivo, Triticum aestivum; conditions: Postemergence
How it was run: as §2

[13] = test system: velvetleaf; experiment: Test A postemergence; type: in vivo, Abutilon theophrasti; conditions: Postemergence
How it was run: as §2

[14] = test system: morningglory; experiment: Test C preemergence; type: in vivo, Ipomoea coccinea; conditions: preemergence; for Plant response rating, Morningglory: 125 g ai/ha, scale 0 to 100, 0 = no effect, 100 = complete control
How it was run: as §1

[15] = 31 g ai/ha, visual rating, scale 0 to 100 (0 no effect, 100 complete control), 13 to 15 days
[16] = 62 g ai/ha, scale 0 to 100 (0 no effect, 100 complete control), 13 to 15 days
[17] = 250 g ai/ha, scale 0 to 100, 0 is no effect, 100 is complete control
[18] = Postemergence, 500 g ai/ha, 0 to 100 scale (0 no effect, 100 complete control)
[19] = postemergence, 125 g ai/ha, about 10 days, visual rating on 0 to 100 scale (0 no effect, 100 complete control)
[20] = 125 g ai/ha, 0 to 100 scale, 0 no effect, 100 complete control
[21] = 500 g ai/ha, 0 to 100 scale (0 no effect, 100 complete control)

Row | Compound | Pigweed plant response rating [1, 16] | Plant response rating, Pigweed ([1]; 13 to 15 days) | Pigweed plant response rating [1, 17] | Velvetleaf plant response rating [2, 15] | Velvetleaf plant response rating [2, 16] | Plant response rating, Velvetleaf ([2]; 13 to 15 days) | Velvetleaf plant response rating [2, 17] | Foxtail, Giant plant response rating [3, 15] | Foxtail, Giant plant response rating [3, 16] | Plant response rating, Foxtail, Giant ([3]; 13 to 15 days) | Foxtail, Giant plant response rating [3, 17] | Corn plant response rating [4, 18] | Corn plant response rating [4, 19] | Wheat plant response rating (0 to 100 scale) [5] | Wheat plant response rating [5] | Corn plant response rating [6, 15] | Corn plant response rating [6, 16] | Plant response rating, Corn ([6]; 13 to 15 days) | Corn plant response rating [6, 17] | Ragweed plant response rating [7, 16] | further results
1 | CCOc1cc(C(=O)NC2CC2)nn1Cc1ccnc(C(F)(F)F)c1 [Compound 189] | 100 | 100 | 100 | 98 | 100 | 100 | 100 | 100 | 100 | 100 | 100 | 100 | 80 | 90 | 100 | 5 | 40 | 85 | 98 | 98 | Pigweed plant response rating [1, 15]: 100; Ragweed plant response rating [7, 15]: 85; Plant response rating, Ragweed ([7]; 13 to 15 days): 100; Ragweed plant response rating [7, 17]: 98; Ryegrass, Italian plant response rating [8, 15]: 40; Ryegrass, Italian plant response rating [8, 16]: 90; Plant response rating, Ryegrass, Italian ([8]; 13 to 15 days): 90; Ryegrass, Italian plant response rating [8, 17]: 90; Plant response rating, Barnyardgrass [9]: 60; Plant response rating, Sedge, Umbrella [10]: 90; Barnyardgrass plant response rating (0 to 100 scale, 0 is no effect, 100 is complete control) [11]: 90; Barnyardgrass plant response rating [11]: 100; Wheat plant response rating [12, 20]: 80; Wheat plant response rating [12, 21]: 90; Velvetleaf plant response rating [13, 20]: 100; Velvetleaf plant response rating [13, 21]: 100; Morningglory plant response rating [14, 15]: 95; Morningglory plant response rating [14, 16]: 98; Plant response rating, Morningglory ([14]; 13 to 15 days): 98; Morningglory plant response rating [14, 17]: 100
2 | CCONC(=O)c1cc(OCC)n(Cc2ccnc(C(F)(F)F)c2)n1 [Compound 195] | 98 | 100 | 100 | 15 | 60 | 100 | 100 | 65 | 85 | 100 | 100 | 90 | 80 | 80 | 100 | 25 | 45 | 70 | 95 | 85 | Plant response rating, Ragweed ([7]; 13 to 15 days): 90; Ragweed plant response rating [7, 17]: 98; Ryegrass, Italian plant response rating [8, 15]: 10; Ryegrass, Italian plant response rating [8, 16]: 60; Plant response rating, Ryegrass, Italian ([8]; 13 to 15 days): 90; Ryegrass, Italian plant response rating [8, 17]: 90; Plant response rating, Barnyardgrass [9]: 10; Plant response rating, Sedge, Umbrella [10]: 95; Barnyardgrass plant response rating (0 to 100 scale, 0 is no effect, 100 is complete control) [11]: 90; Barnyardgrass plant response rating [11]: 100; Wheat plant response rating [12, 20]: 90; Wheat plant response rating [12, 21]: 90; Velvetleaf plant response rating [13, 20]: 70; Velvetleaf plant response rating [13, 21]: 100; Morningglory plant response rating [14, 15]: 35; Morningglory plant response rating [14, 16]: 100; Plant response rating, Morningglory ([14]; 13 to 15 days): 100; Morningglory plant response rating [14, 17]: 100
3 | CCNC(=O)c1cc(CC)n(Cc2ccnc(C(F)(F)F)c2)n1 [Compound 196] | 98 | 100 | 100 | 40 | 100 | 100 | 100 | 98 | 100 | 100 | 100 | 90 | 80 | 20 | 100 | 5 | 5 | 65 | 98 | 90 | Pigweed plant response rating [1, 15]: 98; Ragweed plant response rating [7, 15]: 85; Plant response rating, Ragweed ([7]; 13 to 15 days): 98; Ragweed plant response rating [7, 17]: 98; Ryegrass, Italian plant response rating [8, 15]: 30; Ryegrass, Italian plant response rating [8, 16]: 85; Plant response rating, Ryegrass, Italian ([8]; 13 to 15 days): 90; Ryegrass, Italian plant response rating [8, 17]: 90; Plant response rating, Barnyardgrass [9]: 30; Plant response rating, Sedge, Umbrella [10]: 70; Barnyardgrass plant response rating (0 to 100 scale, 0 is no effect, 100 is complete control) [11]: 90; Barnyardgrass plant response rating [11]: 100; Wheat plant response rating [12, 20]: 40; Wheat plant response rating [12, 21]: 90; Velvetleaf plant response rating [13, 20]: 80; Velvetleaf plant response rating [13, 21]: 100; Morningglory plant response rating [14, 15]: 98; Morningglory plant response rating [14, 16]: 98; Plant response rating, Morningglory ([14]; 13 to 15 days): 100; Morningglory plant response rating [14, 17]: 100
